Reference: US12509454B2, “Thiadiazolyl derivatives” (IDEAYA Biosciences, Inc., priority 2019, dated 2025)

molecular target: Pol theta (1-899) (Homo sapiens (Human), UniProt O75417); experiment: Pol theta ATPase activity, NADH oxidation-coupled enzymatic assay; assay type: biochemical; details: Pol theta (1-899) 10 nM, ATP, dT50 ssDNA, absorbance 340 nm, 10-point dilution series; read-out: ATPase NADH coupling:Standard Screening:hPolQ IC50
How it was run: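 Pol theta (1-899), 10 nM, preincubated 15 min at RT with 10-point compound series in Tris pH 7.80/KCl/MgCl2 buffer, then given 100 μM ATP plus 300 nM dT50 ssDNA with PK/LDH-coupled NADH oxidation. A340 followed for 30 min; rate slopes fitted with a four-parameter model for IC50.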

Chain of Pol theta (1-899) (O75417 1-899): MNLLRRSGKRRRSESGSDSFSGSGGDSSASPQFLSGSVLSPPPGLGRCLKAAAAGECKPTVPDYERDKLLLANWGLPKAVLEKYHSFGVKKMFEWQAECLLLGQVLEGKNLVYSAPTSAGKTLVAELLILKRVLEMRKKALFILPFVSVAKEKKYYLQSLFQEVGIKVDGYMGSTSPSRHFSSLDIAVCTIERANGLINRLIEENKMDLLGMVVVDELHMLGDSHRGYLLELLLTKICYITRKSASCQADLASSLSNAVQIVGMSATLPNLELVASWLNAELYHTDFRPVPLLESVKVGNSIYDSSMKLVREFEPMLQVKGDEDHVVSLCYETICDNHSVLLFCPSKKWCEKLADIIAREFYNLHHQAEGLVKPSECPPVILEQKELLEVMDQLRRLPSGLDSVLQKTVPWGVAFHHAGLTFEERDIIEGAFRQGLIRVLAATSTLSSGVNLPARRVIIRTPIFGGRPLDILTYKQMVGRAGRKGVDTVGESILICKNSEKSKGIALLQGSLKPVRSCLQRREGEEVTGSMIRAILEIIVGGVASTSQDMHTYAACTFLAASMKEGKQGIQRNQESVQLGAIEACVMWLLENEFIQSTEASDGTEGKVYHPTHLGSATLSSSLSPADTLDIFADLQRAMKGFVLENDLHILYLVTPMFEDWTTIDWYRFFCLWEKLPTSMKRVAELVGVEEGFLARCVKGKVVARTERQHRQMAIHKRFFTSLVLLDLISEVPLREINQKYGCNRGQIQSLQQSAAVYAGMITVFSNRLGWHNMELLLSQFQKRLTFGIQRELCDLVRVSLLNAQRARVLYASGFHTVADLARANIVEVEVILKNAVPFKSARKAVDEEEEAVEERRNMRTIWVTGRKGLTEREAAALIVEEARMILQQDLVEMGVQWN

Compound | IC50 [µM]
COc1ccccc1-c1cncnc1C(=O)Nc1nnc(OCc2ccc(Cl)cn2)s1 [Example 209, N-(5-((5-chloropyridin-2-yl)methoxy)-1,3,4-thiadiazol-2-yl)-5-(2-methoxyphenyl)pyrimidine-4-carboxamide] | ≤ 0.2
COc1cccc(F)c1-c1cc(C)ncc1C(=O)Nc1nnc(OCc2ccc(C3(C#N)CC3)cn2)s1 [Example 217, N-(5-((5-(1-cyanocyclopropyl)pyridin-2-yl)methoxy)-1,3,4-thiadiazol-2-yl)-4-(2-fluoro-6-methoxyphenyl)-6-methylnicotinamide] | ≤ 0.2
COc1ccccc1-c1cc(C#N)ncc1C(=O)Nc1nnc(OCCC2CC2)s1 [Example 154, 6-cyano-N-(5-(2-cyclopropylethoxy)-1,3,4-thiadiazol-2-yl)-4-(2-methoxyphenyl)nicotinamide] | ≤ 0.2
COc1ccccc1-c1cc2cnnn2cc1C(=O)Nc1nnc(OCc2ccc(Cl)cn2)s1 [Example 223, N-[5-[(5-chloropyridin-2-yl)methoxy]-1,3,4-thiadiazol-2-yl]-5-(2-methoxyphenyl)-[1,2,3]triazolo[1,5-a]pyridine-6-carboxamide] | ≤ 0.2
N#Cc1ccc(OC2COC2)c(-c2cnccc2C(=O)Nc2nnc(OCc3ccc(Cl)cc3)s2)c1 [Example 172, N-(5-((4-chlorobenzyl)oxy)-1,3,4-thiadiazol-2-yl)-3-(5-cyano-2-(oxetan-3-yloxy)phenyl)isonicotinamide] | ≤ 0.2
COc1ccccc1-c1cnccc1C(=O)Nc1nnc(OCc2ccc(Cl)c3c2cnn3C)s1 [Example 146, N-[5-[(7-chloro-1-methylindazol-4-yl)methoxy]-1,3,4-thiadiazol-2-yl]-3-(2-methoxyphenyl)pyridine-4-carboxamide] | ≤ 0.2
O=C(Nc1nnc(OCc2ccc(Cl)cn2)s1)c1ccncc1N1CCOC2(CC2)C1 [Example 173, N-[5-[(5-chloropyridin-2-yl)methoxy]-1,3,4-thiadiazol-2-yl]-3-[4-oxa-7-azaspiro[2.5]octan-7-yl]pyridine-4-carboxamide] | 0.2 to 0.5
COc1ccccc1-c1cc(C)ncc1C(=O)Nc1nnc(OCc2cnc(Cl)cn2)s1 [Example 212, N-[5-[(5-chloropyrazin-2-yl)methoxy]-1,3,4-thiadiazol-2-yl]-4-(2-methoxyphenyl)-6-methylpyridine-3-carboxamide] | ≤ 0.2
Cc1cc(-c2cccc3c2OCCN3)c(C(=O)Nc2nnc(OCc3ccc(Cl)cn3)s2)cn1 [Example 198, N-(5-((5-chloropyridin-2-yl)methoxy)-1,3,4-thiadiazol-2-yl)-4-(3,4-dihydro-2H-benzo[b][1,4]oxazin-8-yl)-6-methylnicotinamide] | ≤ 0.2
COc1ccccc1-c1ccncc1C(=O)Nc1nnc(OCc2ccc(Cl)cn2)s1 [Example 89, N-(5-((5-chloropyridin-2-yl)methoxy)-1,3,4-thiadiazol-2-yl)-4-(2-methoxyphenyl)nicotinamide] | ≤ 0.2

More lines, now with the values ahead:

IC50 [µM] | Compound
0.2 to 0.5 | O=C1CN(c2ncccc2C(=O)Nc2nnc(OCc3ccc(Cl)cc3)s2)CCN1 [Example 27, N-(5-((4-chlorobenzyl)oxy)-1,3,4-thiadiazol-2-yl)-2-(3-oxopiperazin-1-yl)nicotinamide]
0.2 to 0.5 | CC1C(=O)NCCN1c1ncccc1C(=O)Nc1nnc(OCc2ccc(Cl)cc2)s1 (racemic) [Example 52, (R) N-(5-((4-chlorobenzyl)oxy)-1,3,4-thiadiazol-2-yl)-2-(2-methyl-3-oxopiperazin-1-yl)nicotinamide and (S) N-(5-((4-chlorobenzyl)oxy)-1,3,4-thiadiazol-2-yl)-2-(2-methyl-3-oxopiperazin-1-yl)nicotinamide]
0.5 to 1 | O=C(Nc1nnc(OCc2ccc(Cl)cc2)s1)c1cccnc1C1CCOCC1 [Example 54, N-[5-[(4-chlorophenyl)methoxy]-1,3,4-thiadiazol-2-yl]-2-(oxan-4-yl)pyridine-3-carboxamide]
1 to 10 | O=C(Nc1nnc(OCc2ccc(-c3ncco3)cc2)s1)c1cccnc1N1CCOCC1 [Example 65, 2-morpholino-N-(5-((4-(oxazol-2-yl)benzyl)oxy)-1,3,4-thiadiazol-2-yl)nicotinamide]
≤ 0.2 | COc1cccc(Cl)c1-c1cnccc1C(=O)Nc1nnc(OCc2ccc(Cl)cc2)s1 [Example 125, 3-(2-chloro-6-methoxyphenyl)-N-(5-((4-chlorobenzyl)oxy)-1,3,4-thiadiazol-2-yl)isonicotinamide]
≤ 0.2 | O=C(Nc1nnc(OCc2ccc(Cl)cc2)s1)c1ccncc1-c1c(F)cccc1OC1COC1 [Example 143, N-(5-((4-chlorobenzyl)oxy)-1,3,4-thiadiazol-2-yl)-3-(2-fluoro-6-(oxetan-3-yloxy)phenyl)isonicotinamide]
0.5 to 1 | O=C(Nc1nnc(OCc2ccc(Cl)cc2)s1)c1cccnc1-c1cc[nH]c(=O)c1 [Example 74, N-(5-((4-chlorobenzyl)oxy)-1,3,4-thiadiazol-2-yl)-2′-hydroxy-[2,4′-bipyridine]-3-carboxamide or its tautomer N-(5-((4-chlorobenzyl)oxy)-1,3,4-thiadiazol-2-yl)-2′-oxo-1′,2′-dihydro-[2,4′-bipyridine]-3-carboxamide]
1 to 10 | CC(=O)N1CCN(c2ncccc2C(=O)Nc2nnc(OCc3ccc(Cl)cc3)s2)CC1 [Example 16, 2-(4-acetylpiperazin-1-yl)-N-(5-((4-chlorobenzyl)oxy)-1,3,4-thiadiazol-2-yl)nicotinamide]
